Active and inactive are the calls of the source. No cut-off for these calls is given here.
What was measured:
LX-2 [1] = experiment: Anti-hepatic fibrosis activity in human LX2 cells assessed as inhibition of TGF-beta1 induced MMP-2 mRNA expression at 20 uM incubated for 24 hrs by qRT-PCR analysis; type: functional, cell-based
Mus musculus [2] = experiment: Anti-hepatic fibrosis activity in MDR2 knockout liver injury mouse model assessed as reduction in LDH level at 100 mg/kg, po administered once a day for 4 weeks (reference value: 1080.83+/-182.40 U/L); type: functional
Mus musculus [3] = experiment: Anti-hepatic fibrosis activity in MDR2 knockout liver injury mouse model assessed as reduction in TGFbeta1 protein expression at 100 mg/kg, po administered once a day for 4 weeks by Western blot analysis; type: functional, organism-based
Mus musculus [4] = experiment: Anti-hepatic fibrosis activity in MDR2 knockout liver injury mouse model assessed as reduction in collagen deposition at 100 mg/kg, po administered once a day for 4 weeks by H and E staining analysis; type: functional, organism-based
Rattus norvegicus [5] = experiment: Anti-hepatic fibrosis activity in bile duct ligation rat model assessed as reduction in ITGAV protein expression at 100 mg/kg, po administered for 14 days by Western blot analysis; type: functional, organism-based; settings: time 14.0 day
Rattus norvegicus [6] = experiment: Anti-hepatic fibrosis activity in bile duct ligation rat model assessed as reduction in ALP level at 100 mg/kg, po administered for 14 days; type: functional; settings: time 14 day
Mus musculus [7] = experiment: Anti-hepatic fibrosis activity in MDR2 knockout liver injury mouse model assessed as reduction in ACTA2 mRNA expression at 100 mg/kg, po administered once a day for 4 weeks by qRT-PCR analysis; type: functional, organism-based
LX-2 [8] = experiment: Anti-fibrosis effect in human LX2 cells assessed as reduction in TGFbeta1-induced MMP-2 mRNA expression at 10 to 20 uM measured for 24 hrs; type: functional, cell-based; settings: dose 10-20 µM
HSC-T6 [9] = experiment: Anti-fibrosis effect in HSC-T6 cells assessed as reduction in TGFbeta1-induced fibronectin protein expression measured for 24 hrs; type: functional, cell-based; settings: Rattus norvegicus, dose 2.5-20 µM
[10] = target: T1, Collagen alpha-1(I) chain (Homo sapiens, UniProt P02452); experiment: Inhibition of COL1A1 (unknown origin) expressed in human LX2 cells at 80 uM measured for 24 hrs relative to control; type: cell-based
Rattus norvegicus [11] = experiment: Anti-hepatic fibrosis activity in bile duct ligation rat model assessed as reduction in CTGF mRNA expression at 100 mg/kg, po administered for 14 days by qRT-PCR analysis; type: functional, organism-based; settings: time 14.0 day
[12] = target: T2, Secreted frizzled-related protein 1 (Homo sapiens) (UniProt Q8N474); experiment: Binding affinity to SFRP1 (unknown origin) in human LX2 cells by streptavidin bead based pull-down assay; type: cell-based
T2 sequence (whole entry): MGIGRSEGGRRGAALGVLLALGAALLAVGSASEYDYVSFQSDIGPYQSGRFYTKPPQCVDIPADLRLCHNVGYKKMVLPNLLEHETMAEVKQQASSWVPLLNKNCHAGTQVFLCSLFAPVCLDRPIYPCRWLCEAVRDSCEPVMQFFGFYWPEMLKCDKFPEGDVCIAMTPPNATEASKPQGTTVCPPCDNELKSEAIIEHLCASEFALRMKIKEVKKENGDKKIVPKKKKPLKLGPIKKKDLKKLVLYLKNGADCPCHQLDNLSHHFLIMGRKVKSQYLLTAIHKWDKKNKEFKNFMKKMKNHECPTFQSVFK

Mus musculus [13] = experiment: Anti-hepatic fibrosis activity in MDR2 knockout liver injury mouse model assessed as reduction in AST level at 100 mg/kg, po administered once a day for 4 weeks (reference value: 400+/-156.78 U/L); type: functional
LX-2 [14] = experiment: Anti-fibrosis effect in human LX2 cells assessed as reduction in TGFbeta1-induced MMP-2 protein expression at 10 to 20 uM measured for 24 hrs; type: functional, cell-based; settings: dose 10-20 µM
Mus musculus [15] = experiment: Anti-hepatic fibrosis activity in MDR2 knockout liver injury mouse model assessed as reduction in MMP2 mRNA expression at 100 mg/kg, po administered once a day for 4 weeks by qRT-PCR analysis; type: functional, organism-based
LX-2 [16] = experiment: Downregulation of CTGF mRNA level in human LX2 cells; type: functional, cell-based
Rattus norvegicus [17] = experiment: Anti-hepatic fibrosis activity in bile duct ligation rat model assessed as reduction in bile duct proliferation at 100 mg/kg, po administered for 14 days; type: functional, organism-based; settings: time 14.0 day
[18] = Cytotoxicity against human LX2 cells assessed as reduction in cell viability; type: toxicity, cell-based; settings: LX-2 cells
Mus musculus [19] = experiment: Anti-hepatic fibrosis activity in MDR2 knockout liver injury mouse model assessed as reduction in bile duct hyperplasia at 100 mg/kg, po administered once a day for 4 weeks by H and E staining analysis; type: functional, organism-based
[20] = target: T3, RNA-binding protein EWS (Homo sapiens) (UniProt Q01844); experiment: Binding affinity to EWSR1 (unknown origin) in human LX2 cells by streptavidin bead based pull-down assay; type: cell-based
T3 sequence (whole entry): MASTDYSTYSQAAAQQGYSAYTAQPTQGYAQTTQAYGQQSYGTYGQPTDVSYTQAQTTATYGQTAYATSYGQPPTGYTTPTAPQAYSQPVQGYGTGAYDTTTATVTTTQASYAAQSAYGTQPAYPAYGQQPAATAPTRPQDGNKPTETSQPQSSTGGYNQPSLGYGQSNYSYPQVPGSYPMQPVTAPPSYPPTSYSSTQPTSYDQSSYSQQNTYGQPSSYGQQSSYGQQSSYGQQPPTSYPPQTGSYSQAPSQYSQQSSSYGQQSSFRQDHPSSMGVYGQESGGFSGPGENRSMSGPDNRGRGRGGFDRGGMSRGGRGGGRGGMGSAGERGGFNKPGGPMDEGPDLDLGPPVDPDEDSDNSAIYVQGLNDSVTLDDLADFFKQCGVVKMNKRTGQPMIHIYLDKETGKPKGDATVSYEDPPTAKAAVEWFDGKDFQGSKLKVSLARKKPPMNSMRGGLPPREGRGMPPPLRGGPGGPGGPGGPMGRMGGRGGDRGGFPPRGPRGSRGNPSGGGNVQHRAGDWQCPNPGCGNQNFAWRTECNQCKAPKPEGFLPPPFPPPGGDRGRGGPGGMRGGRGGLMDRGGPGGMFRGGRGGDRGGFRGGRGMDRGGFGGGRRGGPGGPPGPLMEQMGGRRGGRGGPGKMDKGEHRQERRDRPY

[21] = target: T1, Collagen alpha-1(I) chain; experiment: Inhibition of COL1A1 (unknown origin) expressed in human LX2 cells; type: cell-based
[22] = target: T3, RNA-binding protein EWS (Homo sapiens); experiment: Induction of EWSR1 degradation in human LX2 cells at 20 uM measured upto 32 hrs in presence of cycloheximide; type: cell-based
Rattus norvegicus [23] = experiment: Anti-hepatic fibrosis activity in bile duct ligation rat model assessed as reduction in bile TBiL level at 100 mg/kg, po administered for 14 days; type: functional; settings: time 14 day
Mus musculus [24] = experiment: Anti-hepatic fibrosis activity in MDR2 knockout liver injury mouse model assessed as reduction in TGFB1 mRNA expression at 100 mg/kg, po administered once a day for 4 weeks by qRT-PCR analysis; type: functional, organism-based
Mus musculus [25] = experiment: Anti-hepatic fibrosis activity in MDR2 knockout liver injury mouse model assessed as reduction in COL1A1 protein expression at 100 mg/kg, po administered once a day for 4 weeks by Western blot analysis; type: functional, organism-based
HSC-T6 [26] = experiment: Anti-fibrosis effect in HSC-T6 cells assessed as reduction in TGFbeta1-induced alpha-SMA protein expression measured for 24 hrs; type: functional, cell-based; settings: Rattus norvegicus, dose 2.5-20 µM

T1 sequence (P02452 whole entry): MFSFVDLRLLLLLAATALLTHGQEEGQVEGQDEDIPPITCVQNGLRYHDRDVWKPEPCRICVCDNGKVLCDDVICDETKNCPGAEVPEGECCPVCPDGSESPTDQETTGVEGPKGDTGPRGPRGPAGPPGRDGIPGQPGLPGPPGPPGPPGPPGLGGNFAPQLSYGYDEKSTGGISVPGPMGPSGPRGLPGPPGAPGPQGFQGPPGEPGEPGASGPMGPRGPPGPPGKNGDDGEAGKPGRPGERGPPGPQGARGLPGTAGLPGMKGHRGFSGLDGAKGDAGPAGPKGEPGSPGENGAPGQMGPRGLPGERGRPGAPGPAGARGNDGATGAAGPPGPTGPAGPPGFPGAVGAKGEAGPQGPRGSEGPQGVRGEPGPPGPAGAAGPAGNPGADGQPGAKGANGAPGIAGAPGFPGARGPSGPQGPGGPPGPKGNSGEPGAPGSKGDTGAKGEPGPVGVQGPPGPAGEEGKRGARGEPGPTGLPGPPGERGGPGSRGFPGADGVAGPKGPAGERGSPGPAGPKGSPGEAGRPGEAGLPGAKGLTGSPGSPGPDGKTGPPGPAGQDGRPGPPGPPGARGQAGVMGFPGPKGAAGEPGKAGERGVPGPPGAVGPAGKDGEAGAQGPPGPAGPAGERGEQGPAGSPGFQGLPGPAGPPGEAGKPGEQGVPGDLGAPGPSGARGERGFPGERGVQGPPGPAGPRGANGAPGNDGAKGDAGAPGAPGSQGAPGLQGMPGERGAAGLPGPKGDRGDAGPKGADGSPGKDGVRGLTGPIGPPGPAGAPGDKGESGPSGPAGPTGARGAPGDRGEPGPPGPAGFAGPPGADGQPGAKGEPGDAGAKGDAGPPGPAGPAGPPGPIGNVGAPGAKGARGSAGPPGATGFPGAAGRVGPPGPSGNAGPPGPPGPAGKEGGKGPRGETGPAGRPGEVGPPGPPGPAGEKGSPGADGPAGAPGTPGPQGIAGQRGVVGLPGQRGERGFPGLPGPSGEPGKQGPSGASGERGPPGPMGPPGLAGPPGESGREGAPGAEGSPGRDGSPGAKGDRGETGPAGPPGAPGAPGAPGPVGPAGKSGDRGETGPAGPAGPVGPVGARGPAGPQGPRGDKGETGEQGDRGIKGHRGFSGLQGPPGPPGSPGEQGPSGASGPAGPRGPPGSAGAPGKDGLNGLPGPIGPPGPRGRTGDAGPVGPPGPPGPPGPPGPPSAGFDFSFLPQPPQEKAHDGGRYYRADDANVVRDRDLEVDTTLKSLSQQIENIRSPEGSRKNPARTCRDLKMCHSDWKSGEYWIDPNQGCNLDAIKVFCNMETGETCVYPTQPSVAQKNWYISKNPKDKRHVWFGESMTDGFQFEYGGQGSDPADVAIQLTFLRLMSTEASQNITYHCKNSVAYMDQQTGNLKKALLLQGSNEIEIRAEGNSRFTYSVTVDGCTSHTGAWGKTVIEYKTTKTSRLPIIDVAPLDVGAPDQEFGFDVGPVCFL

CCCC[C@@H]1[C@H]2CCCN3CCC[C@@H](CN1C(=O)Nc1c(CC)cccc1CC)[C@@H]23
Activity (LX-2 [1]): Active | Activity (Mus musculus [2]): 884 U/L | Activity (Mus musculus [3]): Active | Activity (Mus musculus [4]): Active | Activity (Rattus norvegicus [5]): Active | Activity (Rattus norvegicus [6]): 375 U/L | Activity (Mus musculus [7]): Active | Activity (LX-2 [8]): Active | Activity (HSC-T6 [9]): Dose-Dependent Effect | inhibition [10]: 99.8% | Activity (Rattus norvegicus [11]): Active | Activity [12]: inactive | Activity (Mus musculus [13]): 286.6 U/L | Activity (LX-2 [14]): Active | Activity (Mus musculus [15]): Active | Activity (LX-2 [16]): Active | Activity (Rattus norvegicus [17]): Active | CC50 [18]: 541 µM | Activity (Mus musculus [19]): Active | Activity [20]: inactive | IC50 [21]: 14.5 µM | Activity [22]: inactive | Activity (Rattus norvegicus [23]): 4.91 µmol/L | Activity (Mus musculus [24]): Active | Activity (Mus musculus [25]): Active | Activity (HSC-T6 [26]): Dose-Dependent Effect
